# Values of other authors, collected in US7795231B2, “Concentrated aqueous azalide formulations” (Insite Vision Incorporated, priority 2007, dated 2010).
# Structures can show the parent of a compound that is named as a salt.
smiles,measurement,value
CC[C@H]1OC(=O)[C@H](C)[C@@H](O[C@H]2C[C@@](C)(OC)[C@@H](O)[C@H](C)O2)[C@H](C)[C@@H](O[C@@H]2O[C@H](C)C[C@H](N(C)C)[C@H]2O)[C@](C)(O)C[C@@H](C)CN(C)[C@H](C)[C@@H](O)[C@]1(C)O [azithromycin dihydrochloride],water solubility (in words),good water solubility
